Experimental findings from paper PMC6630837 (Pharmaceuticals, 2019) are described below.

Series [1] in a line: LogD7.4 determination (octan-1-ol/phosphate buffer, LC-MS). Format: physicochemical. The settings on record: octan-1-ol/phosphate buffer, pH 7.4, octan-1-ol/phosphate buffer pH 7.4, 25 °C; read-out: Log D7.4 (partition coefficient at pH 7.4). As to the method: LogD7.4 determination. The in-silico prediction tool ALOGPS [4] was used to estimate the octanol-water partition coefficients (log P) of the compounds. […] For each category, two different ratios (volume of octan-1-ol to volume of buffer) were defined as experimental parameters (Table 2).
Equal amounts of phosphate buffer (0.1 M, pH 7.4) and octan-1-ol were mixed and shaken vigorously for 5 min to saturate the phases. The mixture was left until separation of the two phases, and the buffer was retrieved. Stock solutions of the test compounds were diluted with buffer to a concentration of 1 μM. For each compound, three determinations per octan-1-ol:buffer ratio were performed in different wells of a 96-well plate. The respective volumes of buffer-containing analyte (1 μM) were pipetted to the wells and covered by saturated octan-1-ol according to the chosen volume ratio. […] The aqueous phase was transferred to a 96-well plate for analysis by liquid chromatography-mass spectrometry (LCMS, see below).
Results are presented as the mean ± SD of three independent experiments.
LC-MS measurements. […] The system was controlled with the Agilent MassHunter Workstation Data Acquisition software (version B.01.04). The column used was an AtlantisR T3 C18 column (2.1 × 50 mm) with a 3 μm-particle size (Waters Corp., Milford, MA, USA). The mobile phase consisted of eluent A: 10 mM ammonium acetate, pH 5.0 in 95:5, H2O:MeCN; and eluent B: MeCN containing 0.1% formic acid. The flow rate was maintained at 0.6 mL/min. […] MS parameters such as fragmentor voltage, collision energy, and polarity were optimized individually for each drug, and the molecular ion was followed for each compound in the multiple reaction monitoring mode. The concentrations of the analytes were quantified by the Agilent Mass Hunter Quantitative Analysis software (version B.01.04).

For series [2], the system named is SH-SY5Y neuroblastoma cells. Put plainly: Cytotoxic activity of compounds alone, MTT cell viability assay. The settings on record: 50 μM compound alone, 24 h, 37 °C, 0.5% DMSO, SH-SY5Y. As to the method: Neuroprotective assays in human neuroblastoma (SH-SY5Y) cells. SH-SY5Y cells were grown in Dulbecco’s Modified Eagle Medium (DMEM, Gibco, Life Technologies) supplemented with 10% fetal bovine serum (FBS, Biochrom GmbH) and 1% Penicillin-Streptomycin (Gibco, Life Technologies) in a humidified incubator at 37 °C, 5% CO2. For the neuroprotective activity assay, undifferentiated SGSY-5Y cells were plated onto 96-well flat-bottomed microtiter plates at a density of 1 × 10^4 cells/well in DMEM supplemented with 2% FBS and preincubated for 24 h at 37 °C, 5% CO2. Compounds (stored as 10 mM solutions in DMSO at −20 °C) were then added to achieve a final concentration of 50 μM and, after 30 min, cells were incubated in the presence or absence of 20 μM Aβ protein fragment 1-42 (Sigma-Aldrich, dissolved in DMSO and stored in 2 mM aliquots at −20 °C) or 100 μM of H2O2 (Sigma-Aldrich, dissolved to 10 mM in 0.9% NaCl aqueous solution immediately prior to the assay) overnight at 37 °C, 5% CO2. […] The following morning, 20 μL of a 5 mg/mL solution of 3-(4,5-dimethylthiazol-2-yl)-2,5-diphenyltetrazolium bromide (MTT, Sigma-Aldrich) in PBS (Gibco, Life Technologies) was added to each well and the plates were further incubated for 4 h at 37 °C, followed by the addition of DMSO (200 μL) to each well in order to dissolve the resulting formazan crystals. After 2 h incubating at 37 °C, the optical density (OD) at 540 nm (with a 620 nm reference filter) was measured in an Amersham Biosciences Biotrak II Plate Reader. The percentage of MTT reduction was determined according to Equation (1). […] Differences between experimental conditions were compared for statistical significance by one-way ANOVA followed by a Tukey’s post-test, an analysis carried out using GraphPad Prism Software (LA Jolla, CA, USA). Differences were considered significant when P < 0.05. In order to exclude direct MTT reduction, compounds were also tested in (a) the absence of cells and (b) in the absence of both cells and culture medium, using the same experimental conditions described above. (2) MTT Reduction (% of Control)=[ODsample−ODmedium/ODcell control−ODmedium] × 100 […]
Tabl e S2. Cytotoxic activity of each compound assessed in SH-SY5Y neuroblastoma cells via an MTT cell viability assay.a Comp ound Nr. MTT reduction (% control) p-va l u e vs . untreated cell control (unpai red t-t es t) […]
a Cells were incubated for 24 h at 37 °C, in the presence (50 μM) or absence of each compound.

Series [3] addresses acetylcholinesterase (AChE) (Electrophorus electricus, UniProt O42275). Kind of series: Acetylcholinesterase inhibition, Ellman's colorimetric assay. Format: biochemical. The settings on record: 100 µM compound; read-out: AChE inhibitory efficacy (percentage of inhibition). As to the method:
For cholinesterase inhibition tests (acetylcholinesterase (AChE, electrophorus
was kept within 1.25% cuvette concentration.
AChE and at 18.2 µM concentration for BuChE. […]
In general terms: DTNB colorimetry detects thiols as they appear.

The nature of series [4]: Cell viability (MTT) assay in Caco-2 cells. Format: cell-based, human. The settings on record: human; Caco-2 cells, 0.1 μM to 100 μM; read-out: IC50 (cytotoxicity). As to the method: (§1) Cell viability assay in human epithelial colorectal adenocarcinoma (Caco-2) and human liver hepatocellular (HepG2) cells. Caco-2 and HepG2 Cells were cultured in DMEM-Dulbecco’s modified Eagle’s medium (Sigma-Aldrich) supplemented with 10% (v/v) inactivated fetal bovine serum (PAA Laboratories GmbH), 2 mM L-glutamine (Sigma-Aldrich), 100 U/mL penicillin and 100 μg/mL streptomycin (Sigma-Aldrich), in a humidified incubator at 37 °C with a 5% CO2 atmosphere. Cells (3 × 10^4 cells/well) were seeded into 96-well plates and incubated at 37 °C in 5% CO2 atmosphere. After 24 h, compounds were added at different concentrations (0.1–100 μM) and incubated in the same conditions. DMSO controls were performed to evaluate a possible solvent cytotoxicity, while pure DMSO was used as a cytotoxic drug. After the established incubation time with compounds, MTT (5 mg/mL) in PBS (Sigma-Aldrich) was added (10 μL) to each well. After 3 h incubation at 37 °C, in 5% CO2, the supernatant was removed. The formazan crystals were solubilized using ethanol/DMSO (1:1) (100 μL), and the absorbance values were determined at 570 nm on the microplate reader Victor3 from PerkinElmer Life Sciences.

Series [5] has as its system human epithelial colorectal adenocarcinoma (Caco-2) cells. Kind of series: Cell viability (MTT) assay in Caco-2 cells. Format: cell-based. The settings on record: at 100 μM. As for the experimental part:
as §1

A short description of series [6]: Cell viability (MTT) assay in HepG2 cells. Conditions: human; HepG2 cells, 0.1 μM to 100 μM; read-out: IC50 (cytotoxicity). Format: cell-based, human. As for the experimental part:
as §1

The test system of series [7] is human liver hepatocellular (HepG2) cells. Kind of series: Cell viability (MTT) assay in HepG2 cells. The class given is cell-based. Conditions: at 100 μM. As for the experimental part:
as §1

A word on the inhibition: it is the drop in the measured response relative to a control, in per cent. As usually defined, the IC50 is the concentration that gives 50% inhibition.

Sequence of acetylcholinesterase (AChE) (O42275 24-633): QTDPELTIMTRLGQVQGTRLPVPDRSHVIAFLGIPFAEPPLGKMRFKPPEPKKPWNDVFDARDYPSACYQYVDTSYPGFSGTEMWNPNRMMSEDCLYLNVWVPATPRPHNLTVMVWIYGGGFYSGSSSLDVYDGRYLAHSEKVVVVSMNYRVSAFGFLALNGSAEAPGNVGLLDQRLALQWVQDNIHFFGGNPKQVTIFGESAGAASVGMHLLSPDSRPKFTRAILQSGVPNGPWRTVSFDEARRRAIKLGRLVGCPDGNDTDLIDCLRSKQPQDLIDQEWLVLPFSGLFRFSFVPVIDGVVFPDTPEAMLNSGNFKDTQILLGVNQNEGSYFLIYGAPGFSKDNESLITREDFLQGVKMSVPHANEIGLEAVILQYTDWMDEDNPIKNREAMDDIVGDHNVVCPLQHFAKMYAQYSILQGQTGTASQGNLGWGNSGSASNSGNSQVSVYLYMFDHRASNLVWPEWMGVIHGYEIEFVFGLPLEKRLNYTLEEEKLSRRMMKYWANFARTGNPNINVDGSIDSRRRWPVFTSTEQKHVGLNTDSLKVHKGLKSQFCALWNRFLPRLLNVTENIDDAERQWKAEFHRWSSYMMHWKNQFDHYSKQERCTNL

`O=c1cc(-c2ccc(N3CCOCC3)cc2)oc2c([C@@H]3O[C@H](CO)[C@@H](O)[C@H](O)[C@H]3O)c(O)cc(O)c12` [Compound 19, 8-(β-D-Glucopyranosyl)-5,7-dihydroxy-4′-(morpholin-4-yl)flavone]: in series [1], the logD was 1.8 ± 0.2. Also, the “MTT reduction (% control)” value in series [2] is given as 138.5 ± 3.6%. Besides, in series [3], the inhibition at 100 µM was 18%. For the same compound, the IC50 in series [4] and in series [6] was at least 100 µM in each case. The “Cytotoxicity towards Caco-2 cells” value in series [5] is on record as “did not show any cytotoxicity”. Moreover, the “Cytotoxicity towards HepG2 cells” value in series [7] is given as “did not show any cytotoxicity”.
